# Measurements reported in PMC13020021 (International Journal for Parasitology: Drugs and Drug …, 2026).
# “Also recorded” adds a separate entry of the source.
# Tests used:
# [1] = system: natural TRPMPZQ variants; assay: Ca2+ reporter assay, entire natural variation collection; assay type: cell-based, Schistosoma mansoni; settings: mean ± sd
# [2] = system: Fasciola spp. TRPMPZQ; settings: Fasciola spp. TRPMPZQ ref Park et al., 2021; cited from earlier work
# [3] = system: TRPMPZQ of pseudophyllidean cestodes; settings: binding pocket variation of pseudophyllidean cestodes ref Sprague et al., 2025; cited from earlier work
smiles,measurement,setting,value
"O=C(C1CCCCC1)N1CC(=O)N2CCc3ccccc3C2C1 (racemic) [(±)-PZQ, praziquantel]",average RA of the entire natural variation collection,[1],1.2 ± 0.55
same,sensitivity of TRPMPZQ to PZQ,[2],insensitivity; also recorded: refractory
same,sensitivity to PZQ,[3],micromolar range
